Columns and labels:
[1] = system: Actinomyces turicensis; assay: MIC of baseline clinical isolates (Example 8); format: cell-based; conditions: Actinomyces turicensis baseline isolates (N′ = 1), central laboratory, mITT
Outline: (§1)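 Deep and superficial specimens from the index site (infected bone, tissue adjacent to implants, deep-site swabs, wound closure or sinus tract) were collected on Day 1. Collection was repeated at each later surgical procedure there.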

[2] = system: Clostridium sphenoides; assay: MIC of baseline clinical isolates (Example 8); format: cell-based; conditions: Clostridium sphenoides baseline isolates (N′ = 1), central laboratory, mITT
Outline: as §1

[3] = system: Cutibacterium [Propionibacterium] acnes; assay: MIC of baseline clinical isolates (Example 8); format: cell-based; conditions: Cutibacterium (Proprionibacterium) acnes baseline isolates (N′ = 3), central laboratory, mITT
Outline: as §1

[4] = system: F. magna; assay: MIC of baseline clinical isolates (Example 8); format: cell-based; conditions: Finegoldia magna baseline isolates (N′ = 4), central laboratory, mITT
Outline: as §1

[5] = system: Peptoniphilus gorbachii; assay: MIC of baseline clinical isolates (Example 8); format: cell-based; conditions: Peptoniphilus gorbachii baseline isolates (N′ = 1), central laboratory, mITT
Outline: as §1

[6] = system: S. aureus (MRSA, MSSA); assay: MIC of baseline clinical isolates (Example 8); format: cell-based; conditions: Staphylococcus aureus, MRSA baseline isolates (N′ = 4), central laboratory, mITT
Outline: as §1

[7] = system: S. epidermidis; assay: MIC of baseline clinical isolates (Example 8); format: cell-based; conditions: Staphylococcus epidermidis baseline isolates (N′ = 5), central laboratory, mITT
Outline: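 Clinical microbiology is assessed at Day 1 and again whenever the index site undergoes surgery. Bone, adjacent tissue and swabs from deep and superficial locations are sampled, and a parallel set goes to the local site laboratory.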

[8] = system: Staphylococcus arlettae; assay: MIC of baseline clinical isolates (Example 8); format: cell-based; conditions: Staphylococcus arlettae baseline isolates (N′ = 1), central laboratory, mITT
Outline: as §1

[9] = system: Staphylococcus haemolyticus; assay: MIC of baseline clinical isolates (Example 8); format: cell-based; conditions: Staphylococcus haemolyticus baseline isolates (N′ = 1), central laboratory, mITT
Outline: as §1

[10] = system: Staphylococcus hominis; assay: MIC of baseline clinical isolates (Example 8); format: cell-based; conditions: Staphylococcus hominis baseline isolates (N′ = 1), central laboratory, mITT
Outline: as §1

[11] = system: Staphylococcus lugdunensis; assay: MIC of baseline clinical isolates (Example 8); format: cell-based; conditions: Staphylococcus lugdunensis baseline isolates (N′ = 3), central laboratory, mITT
Outline: as §1

[12] = system: Staphylococcus pasteuri; assay: MIC of baseline clinical isolates (Example 8); format: cell-based; conditions: Staphylococcus pasteuri baseline isolates (N′ = 1), central laboratory, mITT
Outline: as §1

[13] = system: non-speciated Anaerococcus; assay: MIC of baseline clinical isolates (Example 8); format: cell-based; conditions: Anaerococcus non-speciated baseline isolates (N′ = 1), central laboratory, mITT
Outline: as §1

[14] = system: C. difficile; assay: Agar dilution MIC, anaerobes (Example 5); format: cell-based, Clostridium difficile; conditions: Clostridioides difficile
[15] = system: P. aeruginosa and A. baumannii; assay: MIC summary, P. aeruginosa and A. baumannii (Example 5); format: cell-based; conditions: all evaluated P. aeruginosa and A. baumannii isolates (Table 4); read-out: MIC values across isolates
Experimental: Test and Comparator Agents: The test agents were stored at room temperature until assayed. All test agents were suspended and diluted in 100% dimethylsulfoxide (DMSO), and were ultimately tested at a final concentration of 0.06-64 μg/mL. The stock solutions were allowed to stand for at least 1 hr prior to use to auto-sterilize.
TestMedia: Test media were prepared and stored in accordance with guidelines from CLSI (4, 6, 7). […] Neisseria gonorrhoeae were evaluated by agar dilution using agar consisting of GC medium base (BD; Lot No. 4274618) supplemented with 1% IsoVitaleX (BD; Lot No. 5246843).
Broth Microdilution MC Testing (Aerobic Bacteria and Yeast): The broth microdilution assay method employed for the susceptibility testing of aerobic bacteria (excluding N. gonorrhoeae which was evaluated by agar dilution) and yeast essentially followed the procedures described by CLSI (3, 4, 7, 8) and employed automated liquid handlers to conduct serial dilutions and liquid transfers. […]
Plates were stacked 4 high, covered with a lid on the top plate, placed into plastic bags, and incubated at 35° C. for approximately 24-48 hr for all yeast isolates and 16-24 hr for aerobic bacteria. […] MIC endpoints for the test agents and control compounds were read per CLSI criteria (3, 7).

[16] = ATCC700057, C. difficile MMX 4381 (ATCC 700057), QC, CCI
[17] = C. difficile MMX 8272, ribotype 255, CCI
[18] = C. difficile MMX 8279, ribotype 005, CCR
[19] = C. difficile MMX 8281, ribotype 010, CCR
[20] = NCTC13307, C. difficile MMX 5681 (NCTC 13307), ribotype 012, CCR
[21] = NCTC13336, C. difficile MMX 5680 (NCTC 13336), ribotype 027, CCI METR

SMILES | n (% resistant) [1] | n (% resistant) [2] | n (% resistant) [3] | n (% resistant) [4] | n (% resistant) [5] | n (% resistant) [6] | n (% resistant) [7] | n (% resistant) [8] | n (% resistant) [9] | n (% resistant) [10] | n (% resistant) [11] | n (% resistant) [12] | n (% resistant) [13] | MIC [14, 16] [µg/mL] | MIC [14, 17] [µg/mL] | MIC [14, 18] [µg/mL] | MIC [14, 19] [µg/mL] | MIC [14, 20] [µg/mL] | MIC [14, 21] [µg/mL] | MIC [15] [µg/mL] | other results
CCC[C@@H]1C[C@@H](C(=O)N[C@@H]([C@H]2O[C@H](SC)[C@H](O)[C@@H](O)[C@H]2O)[C@H](C)Cl)N(C)C1 [CLI] | 0 (0.0) n (%) | 1 (100.0) n (%) | 0 (0.0) n (%) | 2 (50.0) n (%) | 1 (100.0) n (%) | 1 (25.0) n (%) | 1 (20.0) n (%) | 0 (0.0) n (%) | 1 (100.0) n (%) | 0 (0.0) n (%) | 0 (0.0) n (%) | 1 (100.0) n (%) | 0 (0.0) n (%) |  |  |  |  |  |  |  | Mean MIC [1]: 0.25 µg/mL; Mean MIC [2]: 8.00 µg/mL; Mean MIC [3]: 0.25 µg/mL; Mean MIC [4]: 4.38 µg/mL; Mean MIC [5]: 8.00 µg/mL; Mean MIC [6]: 4.16 µg/mL; Mean MIC [7]: 3.66 µg/mL; Mean MIC [8]: 0.25 µg/mL; Mean MIC [9]: 8.00 µg/mL; Mean MIC [10]: 0.12 µg/mL; Mean MIC [11]: 0.03 µg/mL; Mean MIC [12]: 1.00 µg/mL; Mean MIC [13]: 0.25 µg/mL
C[C@@H](O)[C@H]1C(=O)N2C(C(=O)O)=C(S[C@@H]3CN[C@H](C(=O)N(C)C)C3)[C@H](C)[C@H]12 [Meropenem] | 0 (0.0) n (%) | 0 (0.0) n (%) | 0 (0.0) n (%) | 0 (0.0) n (%) | 0 (0.0) n (%) |  |  |  |  |  |  |  | 0 (0.0) n (%) |  |  |  |  |  |  |  | MIC ([1]; Schaalia turicensis): 0.25 µg/mL; MIC ([2]; Lacrimispora sphenoides): 2 µg/mL; MIC [3]: 0.06 µg/mL; MIC [4]: 0.06 µg/mL; MIC [5]: 0.06 µg/mL; MIC [13]: 0.25 µg/mL
OCC(S)CS.[Bi] (stereo not drawn) [MB-2B, bismuth-2,3-dimercaptopropanol] |  |  |  |  |  |  |  |  |  |  |  |  |  | 8 | 8 | 16 | 8 | 8 | 2 | 2 to 16 | 
CC(S)C(C)S.[Bi] (stereo not drawn) [MB-6, bismuth-2,3-butanedithiol] |  |  |  |  |  |  |  |  |  |  |  |  |  | 4 | 2 | 2 | 2 | 2 | 2 | 0.5 to 2 | 
C[C@H]1COc2c(N3CCN(C)CC3)c(F)cc3c(=O)c(C(=O)O)cn1c23 [Levofloxacin] |  |  |  |  |  | 4 (100.0) n (%) | 2 (40.0) n (%) | 0 (0.0) n (%) | 1 (100.0) n (%) | 1 (100.0) n (%) | 0 (0.0) n (%) | 0 (0.0) n (%) |  |  |  |  |  |  |  |  | MIC [6]: 8 µg/mL; MIC [7]: 2.52 µg/mL; MIC [8]: 0.5 µg/mL; MIC [9]: 8 µg/mL; MIC [10]: 8 µg/mL; MIC [11]: 0.92 µg/mL; MIC [12]: 0.25 µg/mL

— US20240285571A1, “METHODS OF TREATING BONE INFECTIONS” (MICROBION CORPORATION, priority 2020, published 2024)
